This is an account of results in patent US5021423A, “Mitomycin derivatives and intermediates therefor” (Kyowa Hakko Kogyo Kabushiki Kaisha, priority 1988, dated 1991).

In brackets after ≈: the same amount, converted by molar mass.

The subject of series [1] is Streptococcus faecium: Enterococcus faecium ATTC 10541. The series is described as follows: Anti-bacterial activity, agar dilution method at pH 7.0 (SF). The series is classed as cell-based. To be noted: pH 7, read-out: minimum growth inhibitory concentration, SF. From the text: (§1) In this table, the microorganisms are abbreviated as follows:
SF: Streptococcus faecium: Enterococcus faecium

The subject of series [2] is Staphylococcus aureus ATCC 6538P. The series is described as follows: Anti-bacterial activity, agar dilution method at pH 7.0 (SA). The series is classed as cell-based. To be noted: ATCC6538P, read-out: minimum growth inhibitory concentration, SA.
Source text: as §1
SA: Staphylococcus aureus ATCC 6538P

In the next series the test system is HeLa S3 cells. In words: Inhibition test against the growth of HeLa S3 cells. Conditions: Homo sapiens, 72 hours, neutral red, read-out: IC50 (growth inhibition by 50%). It counts as cell-based. The procedure: Inhibition test against the growth of HeLa S3 cells
Each 0.1 ml of MEM medium containing 10% foetal calf serum and 2 mM glutamine, which contained 3×10^4 HeLa S3 cells per ml, was put into each well of a 96 well microtitre plate. Without any pre-treatment, the cells were cultured overnight at a temperature of 37° C. in a CO2 incubator.
On each occasion, 0.05 ml of a test sample which had been suitably diluted was added to the well. After treating with the test compound for 72 hours, the supernatant was removed. After washing once with a PBS (-), a fresh medium (0.1 ml) was added to each well, followed by incubating at a temperature of 37° C. for 2 hours in the incubator.
After removal of the supernatant, 0.1 ml of a medium containing neutral red (0.02%) was added to each well. The cells were dyed by incubating at a temperature of 37° C. for one hour in the incubator. After removal of the supernatant, followed by washing once with a physiological solution of sodium chloride, the dyestuff was removed from each sample by extraction using a mixture of 0.001N hydrochloric acid and 30% ethanol. A microplate reader was used to measure the absorption at 550 nm. By comparing the absorption of untreated cells with the absorption of the cells treated with the test compound having a pre-determined concentration, a concentration of the test compound capable of inhibiting the growth of the cells by 50% was calculated and designated as IC50.

The subject of series [3] is Proteus vulgaris ATCC 6897. In words: Anti-bacterial activity, agar dilution method at pH 7.0 (PV). It counts as cell-based. Conditions: ATCC6897, read-out: minimum growth inhibitory concentration, PV.
Source text: as §1
PV: Proteus vulgaris ATCC 6897

Series [4] deals with Klebsiella pneumoniae ATCC 10031. In words: Anti-bacterial activity, agar dilution method at pH 7.0 (KP). The series is classed as cell-based. To be noted: ATCC10031, read-out: minimum growth inhibitory concentration, KP.
Source text: as §1
KP: Klebsiella pneumoniae ATCC 10031

The subject of a further series is Sarcoma 180 solid tumour. In words: Effect against Sarcoma 180 solid tumour. It counts as in vivo, mice of ddy strain. To be noted: Mus musculus, Sarcoma-180, iv, 168 h; male ddy mice, tail vein injection 24 hours after implantation; tumour volume 7 days after implantation; read-out: ED50 (dose reducing the volume of Sarcoma 180 solid tumours by 50%). The procedure:
(1) Effect aginast Sarcoma 180 solid tumour:
5×10^6 cells of Sarcoma 180 solid tumour cells were abdominally implanted into male mice of ddy strain. 7 days after this, ascites cells were sampled. The ascites cells were washed once with a sterilized physiological solution of sodium chloride and were used to prepare a cell suspension containing 5×10^7 cells per ml. 0.1 ml of the cell suspension was subcutaneously implanted into the right armpit of a male mouse (ddy strain; body weight 20±2 g). 24 hours after the implantation of the tumour cells, the test compound dissolved in a physiological solution of sodium chloride containing Tween 80, was injected into the tail vein of each mouse of a group consisting of 5 animals at a dose of 0.1-0.2 ml. The anti-tumour activity of the test sample was determined as follows:
7 days after the implantation, the major axis (a) and the minor axis (b) of the tumour were measured to calculate a value of "a×b^2 /2" which corresponds to the volume of the tumour. The anti-tumour activity was expressed by T/C viz. the ratio of the volume of the tumours (T) of the group of animals administered with the test compound to the corresponding volume of tumours (C) of the untreated animals.
(2) Determination of ED50 :
The term ED50 denotes the administered amount needed for reducing the volume of Sarcoma 180 solid tumours in the animals by 50% on the basis of the corresponding volume of Sarcoma 180 solid tumours in the untreated animals. On graph paper, the value T/C was indicated by an arithmetic scale on the longitudinal axis and the administered amount of test compound was indicated by a logarithmic scale on the lateral axis. A straight line indicating the relationship between the dose and T/C was determined by the least squares method from which a dose corresponding to T/C of 0.5 was obtained.

A short description of the next series: Acute toxicity. To be noted: mouse, in vivo; ddy mice, single intravenous administration, observed for 14 days, Behrens Korber's method. The procedure: Each animal of the test group consisting of 5 ddy mice was once administered intravenously with a test compound. […] The LD50 was determined by the Behrens Korber's method.

Take `CO[C@@]12[C@H](COC(N)=O)C3=C(C(OC(C)=O)=C(C)C4(OCCO4)C3=O)N1C[C@@H]1N[C@@H]12` [Compound 2]: the MIC in series [1] was 1.3 mg/L (≈ 3.08 µM); in series [2], 0.63 mg/L (≈ 1.49 µM); in series [3], 1.3 mg/L (≈ 3.08 µM); in series [4] it was 0.16 mg/L (≈ 0.38 µM). For the same compound, in the series on HeLa S3 cells, the IC50 was found to be 0.007 mg/L (≈ 0.0166 µM).
As to `CC(=O)OC1=C(C)C2(OCCO2)C(=O)C2=C1N1C[C@H]3[C@H](N3C)[C@]1(O)[C@H]2COC(N)=O` (some centres unmarked) [Compound 3], the median effective dose (ED50) in the series on Sarcoma 180 solid tumour amounted to 9.9 mg/kg. Also, the MIC in series [1] came out at 50 mg/L (≈ 119 µM); in series [2], 13 mg/L (≈ 30.8 µM); in series [3], 13 mg/L (≈ 30.8 µM); in series [4], 6.3 mg/L (≈ 14.9 µM). In “Acute toxicity”, this compound displayed an LD50 at 336 h of 11.3 mg/kg.
Consider `CO[C@@]12[C@H](COC(N)=O)C3=C(C(OC(=O)c4ccccc4)=C(C)C4(OCCO4)C3=O)N1C[C@@H]1N[C@@H]12` [Compound 5], for which the MIC in series [1] turned out to be 1.3 mg/L (≈ 2.69 µM); in series [2], 0.31 mg/L (≈ 0.641 µM); in series [3], 0.63 mg/L (≈ 1.3 µM); in series [4], 1.3 mg/L (≈ 2.69 µM). Also, the IC50 in the series with HeLa S3 cells came to 0.013 mg/L (≈ 0.0269 µM).
`CCCCCCCCCCCC(=O)OC1=C(C)C2(OCCO2)C(=O)C2=C1N1C[C@@H]3N[C@@H]3[C@]1(OC)[C@@H]2COC(N)=O` [Compound 6]: the median effective dose (ED50) with Sarcoma 180 solid tumour turned out to be 1.2 mg/kg. The MIC came out at 2.5 mg/L (≈ 4.45 µM) in series [1], 0.63 mg/L (≈ 1.12 µM) in series [2], 2.5 mg/L (≈ 4.45 µM) in series [3] and 5 mg/L (≈ 8.9 µM) in series [4]. Moreover, the half-maximal inhibitory concentration (IC50) with HeLa S3 cells was determined as 0.0019 mg/L (≈ 0.00338 µM). Further, in the series “Acute toxicity”, the 50% lethal dose (LD50) at 336 h stood at 3 mg/kg.
On to `COC1=C(C)C2(OCCO2)C(=O)C2=C1N1C[C@@H]3N[C@@H]3[C@]1(OC)[C@@H]2COC(N)=O` [Compound 7], for which the MIC amounted to 10 mg/L (≈ 25.4 µM) in series [1], 5 mg/L (≈ 12.7 µM) in series [2], 10 mg/L (≈ 25.4 µM) in series [3] and 2.5 mg/L (≈ 6.35 µM) in series [4]. For the same compound, the IC50 in the series with HeLa S3 cells was 0.085 mg/L (≈ 0.216 µM).
For `CCCCC/C=C\C/C=C\CCCCCCCC(=O)OC1=C(C)C2(OCCO2)C(=O)C2=C1N1C[C@@H]3N[C@@H]3[C@]1(OC)[C@@H]2COC(N)=O` [Compound 10], in the series with Sarcoma 180 solid tumour, the ED50 amounted to 1.9 mg/kg. The 50% inhibitory concentration (IC50) in the series on HeLa S3 cells was 0.0026 mg/L (≈ 0.00405 µM). In “Acute toxicity”, this compound yielded an LD50 at 336 h of 4.2 mg/kg.
Turning to `CCCCCCCC(=O)OC1=C(C)C2(OCCO2)C(=O)C2=C1N1C[C@@H]3N[C@@H]3[C@]1(OC)[C@@H]2COC(N)=O` [Compound 11], the median effective dose (ED50) in the series with Sarcoma 180 solid tumour was 0.77 mg/kg. For the same compound, in the series with HeLa S3 cells, the half-maximal inhibitory concentration (IC50) is 0.01 mg/L (≈ 0.0198 µM). The same compound came in with an LD50 at 336 h in “Acute toxicity” of 3.1 mg/kg.
As for `CO[C@@]12[C@H](COC(N)=O)C3=C(C(OC(=O)C(C)(C)C)=C(C)C4(OCCO4)C3=O)N1C[C@@H]1N[C@@H]12` [Compound 12], in the series on HeLa S3 cells, the IC50 stood at 0.53 mg/L (≈ 1.14 µM).
